Experimental data from article PMC8940841, “A metabolically stable PET tracer for imaging synaptic vesicle protein 2A: synthesis and preclinical characterization of [^18F]SDM-16” (European Journal of Nuclear Medicine and Molecular Imaging, 2021).
Read-outs that look alike come from different tables or passages of the source.

What was measured:
[1] = biological target: SV2A (Macaca mulatta, UniProt H9EQH8); test: LEV blocking and displacement PET scans, Lassen plot; format: in vivo, rhesus monkeys (Macaca mulatta); parameters: from tissue; host or cells: brain of living rhesus monkeys (in vivo PET); settings: for VT (blocking): LEV 30 mg/kg i.v.
Excerpt: Four monkeys were studied.
To examine the in vivo binding specificity, SV2A occupancy, and the extent of nonspecific binding in the monkey brain, we performed the Lassen plot analysis using data from the two baseline scans and one blocking scan in the same monkey.

[2] = Brain PET imaging with 1TC kinetic modeling; settings: rhesus monkey, intravenous; for Kp / half-life: both
Procedure: (§1) A total of 10 PET imaging experiments with [^18F]SDM-16 were performed in rhesus monkeys (Macaca mulatta) according to a protocol approved by the Yale University Institutional Animal Care and Use Committee (IACUC). Four monkeys were studied. […] Body temperature was maintained by a water-jacket heating pad. The animal was attached to a physiological monitor, and vital signs (heart rate, blood pressure, respirations, SPO2, EKG, ETCO2, and body temperature) were continuously monitored. A venous line was inserted in one limb for administration of radiotracer, displacement, and blocking drugs. A catheter was placed in the femoral artery in the other limb for blood sampling. Dynamic PET brain scans were performed on a Focus 220 system (Siemens Medical Solutions, Knoxville, TN, USA) with a reconstructed image resolution of approximately 1.5 mm. After a 9-min transmission scan, the radioligand was injected i.v. over 3 min. by an infusion pump. Dynamic PET scans were performed for 3 h (baseline and blocking scans) or 4 h (displacement scan).
(§2) PET images were reconstructed with built-in corrections for attenuation, normalization, scatter, randoms, and deadtime. PET brain images were registered to the animal’s MR image, which was subsequently registered to a brain atlas to define the regions of interest. Dynamic images were reconstructed using a Fourier rebinning and filtered back projection algorithm. A rhesus monkey brain atlas was used for generation of regions of interest (ROIs) and time − activity curves (TACs) for the following ROIs: amygdala, brain stem, caudate nucleus, centrum semiovale (CS), cerebellum, cingulate cortex, frontal cortex, globus pallidus, hippocampus, insula, nucleus accumbens, occipital cortex, pons, putamen, substantia nigra, temporal cortex, and thalamus.
(§3) Volume of distribution (VT, mL·cm^−3) values and the first-order kinetic rate constants of tracer (K1) were derived through 1-tissue (1T) compartment kinetic modeling with the metabolite-corrected arterial plasma input function, which was calculated as the product of the fitted total plasma curve and the parent radiotracer fraction curve. Nondisplaceable volume of distribution (VND) and SV2A occupancy by LEV was calculated using the Lassen plot [32]. Nondisplaceable binding potential (BPND) values were calculated from VT values using CS as reference region, or the VND derived from the blocking study, i.e., BPND = (VT, ROI − VT, CS)/ VT, CS or BPND = (VT/VND) -1.

[3] = system: SV2A; test: Brain PET imaging with 1TC kinetic modeling; settings: for VT (baseline): 1TC
Procedure: as §1, §2, §3

[4] = Free base fraction in plasma by modified Henderson-Hasselbalch equation (Eq. 1); settings: Eq. 1, plasma pH 7.4
[5] = Plasma radiometabolite analysis during PET scans; format: in vivo, rhesus monkeys
Procedure: Arterial blood samples were collected during the PET scans to measure the radioactivity in plasma for generation of the metabolite-corrected arterial plasma input function. Plasma radiometabolite analysis was performed using the column-switching method, following a published protocol. Briefly, arterial blood samples were collected at 3-, 8-, 15-, 30-, 60-, 90-, 120-, and 180-min post-injection (p. i.), treated with urea (8 M), filtered, and injected onto a self-packed short column (4.6 × 19 mm) eluting with 1% MeCN in water at a flow rate of 2 mL/min. The sample was then back flushed onto a Gemini-NX column (5 μm, 4.6 mm × 250 mm) eluting with 40% MeCN/60% 0.1 M ammonium formate (pH 6.4) at a flow rate of 1.2 mL/min. The eluent was fraction-collected using an automated spectrum chromatography CF-1 fraction collector. Activity in the whole blood, plasma, filtrated plasma-urea mix, filters, and HPLC fractions were counted with automatic gamma well-counter (Wizard 2, PerkinElmer). The sample recovery rate, extraction efficiency, and HPLC fraction recovery were monitored. The unmetabolized [^18F]SDM-16 parent fraction was determined as the ratio of the sum of radioactivity in fractions containing the parent compound to the total amount of radioactivity collected and fitted with inverted Gamma4 approaches.
[^18F]SDM-16 had higher metabolite-corrected plasma SUV than the other SV2A radiotracers, indicating slower plasma clearance and higher metabolic stability (Fig. 2a). Whole-blood and plasma-input functions were highly consistent between the two animals, with a stable plasma to whole-blood ratio of 0.93 ± 0.13 over the entire 180-min acquisition period (Fig. S1).

[6] = Plasma free fraction (fp) by ultrafiltration; format: in vitro ADME, rhesus monkey; settings: monkey, plasma (separated from spiked whole blood)
Procedure: The unbound fraction of [^18F]SDM-16 in plasma (fp) of rhesus monkey was measured in triplicate using the ultrafiltration method. Briefly, [^18F]SDM-16 solution was added to 3 mL of whole blood. After incubation at ambient temperature for 5 min, the blood sample was centrifuged at 3900 rpm for 5 min. A sample of the supernatant plasma (0.3 mL) was loaded onto the reservoir of a Centrifree® Ultrafiltration device (Merck Millipore Ltd. Tullagreen, Carrigtwohill, Co. Cork, IRELAND) in triplicate and centrifuged at 1228 g for 20 min. The fp value was calculated as the ratio of radioactivity in the filtrate to that in the plasma.

[7] = system: SV2A
Procedure: as §1, §2, §3

Sequence of SV2A (Macaca mulatta, UniProt H9EQH8) (H9EQH8 1-742): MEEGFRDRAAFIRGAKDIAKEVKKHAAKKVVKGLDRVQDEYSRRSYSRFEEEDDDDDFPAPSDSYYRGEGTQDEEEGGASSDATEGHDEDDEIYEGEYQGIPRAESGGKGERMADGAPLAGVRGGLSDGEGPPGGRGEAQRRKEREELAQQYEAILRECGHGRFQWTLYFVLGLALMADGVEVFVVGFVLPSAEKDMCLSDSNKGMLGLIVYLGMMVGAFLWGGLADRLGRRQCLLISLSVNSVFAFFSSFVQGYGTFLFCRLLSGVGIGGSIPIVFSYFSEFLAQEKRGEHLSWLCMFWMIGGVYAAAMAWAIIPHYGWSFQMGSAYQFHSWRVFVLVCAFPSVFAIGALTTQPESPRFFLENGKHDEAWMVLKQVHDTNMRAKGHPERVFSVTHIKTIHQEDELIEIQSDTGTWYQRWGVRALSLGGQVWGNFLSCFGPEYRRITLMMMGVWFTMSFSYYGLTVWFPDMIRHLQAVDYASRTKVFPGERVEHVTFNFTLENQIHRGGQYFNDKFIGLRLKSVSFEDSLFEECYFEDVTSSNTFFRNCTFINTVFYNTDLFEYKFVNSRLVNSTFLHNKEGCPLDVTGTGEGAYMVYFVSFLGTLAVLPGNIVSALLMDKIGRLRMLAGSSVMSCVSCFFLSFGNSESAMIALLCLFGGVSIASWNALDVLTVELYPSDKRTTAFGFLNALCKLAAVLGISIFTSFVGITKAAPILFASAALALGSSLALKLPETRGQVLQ

Cc1nccn1CN1C[C@@H](c2cc(F)cc([18F])c2)CC1=O [[^18F]SDM-16, (R)-4-(3-fluoro-5-(fluoro-^18F)phenyl)-1-((2-methyl-1H-imidazol-1-yl)methyl)pyrrolidin-2-one]
VT (blocking) ([1]; Amygdala): 4.5 mL/cm^3 | VT (blocking) ([1]; Brainstem): 4.5 mL/cm^3 | VT (blocking) ([1]; Centrum semiovale): 3.4 mL/cm^3 | VT (blocking) ([1]; Cerebellum): 6.6 mL/cm^3 | VT (blocking) ([1]; Cingulate cortex): 10.4 mL/cm^3 | VT (blocking) ([1]; Frontal cortex): 9.5 mL/cm^3 | VT (blocking) ([1]; Globus pallidus): 6.9 mL/cm^3 | VT (blocking) ([1]; Hippocampus): 5.9 mL/cm^3 | VT (blocking) ([1]; Insular cortex): 10.3 mL/cm^3 | reduction of tracer uptake in LEV displacement ([1]; LEV 30 mg/kg i.v. at 120 min p.i., averaged from 5 brain regions, SUV at 4 h p.i. vs 180 min baseline): 58 ± 8% | VT (blocking) ([1]; Nucleus accumbens): 10.5 mL/cm^3 | VT (blocking) ([1]; Occipital cortex): 8.3 mL/cm^3 | VT (blocking) ([1]; Temporal cortex): 8.6 mL/cm^3 | BPND in the LEV blocking scan ([1]; cingulate cortex and nucleus accumbens, 79% SV2A occupied by LEV): up to 2.11 | reduction of tracer uptake in gray matter by pre-blocking ([1]; preinjected LEV 30 mg/kg i.v., normalized terminal SUV): 57 ± 10% | Kp ([2]; brain (caudate)): 21.6 ± 4.9 | Kp ([2]; brain (centrum semiovale)): 6.6 | half-life ([2]; brain (centrum semiovale)): 1.38 ± 0.3 h | Kp ([2]; brain (cerebellum)): 21.5 ± 3 | Kp ([2]; brain (cingulate cortex)): 31.3 | half-life ([2]; brain (insular cortex)): 2.53 ± 0.817 h | Kp ([2]; brain (putamen)): 26 ± 6.8 | Kp ([2]; brain (thalamus)): 21.6 ± 4.9 | fraction unbound ([2]; brain tissue): 0.27 | K1 ([3]; Amygdala): 0.10 ± 0.02 mL/cm^3 per min | VT (baseline) ([3]; Amygdala): 11.2 ± 2.0 mL/cm^3 | K1 ([3]; Anterior cingulate): 0.15 ± 0.01 mL/cm^3 per min | K1 ([3]; Brainstem): 0.14 ± 0.02 mL/cm^3 per min | VT (baseline) ([3]; Brainstem): 14.1 ± 1.7 mL/cm^3 | K1 ([3]; Caudate): 0.13 ± 0.02 mL/cm^3 per min | VT (baseline) ([3]; Centrum semiovale): 6.6 ± 0.9 mL/cm^3 | K1 ([3]; Cerebellum): 0.18 ± 0.02 mL/cm^3 per min | K1 ([3]; Cingulate cortex): 0.15 ± 0.00 mL/cm^3 per min | VT (baseline) ([3]; Cingulate cortex): 31.3 ± 7.8 mL/cm^3 | K1 ([3]; Frontal cortex): 0.14 ± 0.00 mL/cm^3 per min | VT (baseline) ([3]; Frontal cortex): 27.9 ± 6.8 mL/cm^3 | K1 ([3]; Globus pallidus): 0.11 ± 0.01 mL/cm^3 per min | VT (baseline) ([3]; Globus pallidus): 17.2 ± 3.5 mL/cm^3 | K1 ([3]; Hippocampus): 0.12 ± 0.02 mL/cm^3 per min | VT (baseline) ([3]; Hippocampus): 17.9 ± 2.5 mL/cm^3 | K1 ([3]; Insular cortex): 0.14 ± 0.01 mL/cm^3 per min | VT (baseline) ([3]; Insular cortex): 29.8 ± 8.0 mL/cm^3 | K1 ([3]; Mean ± SD over brain regions): 0.14 ± 0.03 mL/cm^3 per min | K1 ([3]; Nucleus accumbens): 0.13 ± 0.01 mL/cm^3 per min | VT (baseline) ([3]; Nucleus accumbens): 29.4 ± 8.5 mL/cm^3 | K1 ([3]; Occipital cortex): 0.18 ± 0.02 mL/cm^3 per min | VT (baseline) ([3]; Occipital cortex): 29.5 ± 5.5 mL/cm^3 | K1 ([3]; Putamen): 0.16 ± 0.02 mL/cm^3 per min | K1 ([3]; Temporal cortex): 0.14 ± 0.01 mL/cm^3 per min | VT (baseline) ([3]; Temporal cortex): 27.3 ± 5.7 mL/cm^3 | K1 ([3]; Thalamus): 0.14 ± 0.02 mL/cm^3 per min | SUV (brain tracer uptake) ([3]; baseline scan, end of scan, frontal cortex and putamen): about 10 | averaged VT as percent of that of [^11C]UCB-A ([3]; rhesus monkey, in vivo): 59% | regional K1 lower than [^11C]UCB-J ([3]; rhesus monkey, in vivo): 82% | regional K1 lower than [^18F]SynVesT-1 ([3]; rhesus monkey, in vivo): 86% | in vivo defluorination (radioactivity in skull) ([3]; up to 4-h p.i.): lack of in vivo defluorination | fraction present in plasma as free base [4]: 30% | parent fraction in plasma ([5]; 30 min p.i.): 89 ± 5% | parent fraction in plasma ([5]; 120 min p.i.): 80 ± 7% | plasma to whole-blood ratio ([5]; over 180-min acquisition): 0.93 ± 0.13 | fraction unbound at 5 min [6]: 0.69 | regional BPND range, CS as reference region [7]: 0.69-3.90 | regional BPND range, VND method [7]: 2.9-15.1 | BPND, VND method ([7]; Amygdala): 2.92 ± 0.25 | BPND, VT(CS) method ([7]; Amygdala): 0.69 ± 0.23 | BPND, VND method ([7]; Anterior cingulate): 15.13 ± 4.21 | BPND, VT(CS) method ([7]; Anterior cingulate): 3.90 ± 1.38 | BPND, VND method ([7]; Brainstem): 4.93 ± 0.15 | BPND, VT(CS) method ([7]; Brainstem): 1.14 ± 0.24 | BPND, VND method ([7]; Caudate): 8.76 ± 0.68 | BPND, VT(CS) method ([7]; Caudate): 2.27 ± 0.68 | BPND, VND method ([7]; Cerebellum): 9.47 ± 0.65 | BPND, VT(CS) method ([7]; Cerebellum): 2.28 ± 0.53 | BPND, VND method ([7]; Cingulate cortex): 14.97 ± 0.28 | BPND, VT(CS) method ([7]; Cingulate cortex): 3.77 ± 1.28 | BPND, VND method ([7]; Frontal cortex): 12.72 ± 0.76 | BPND, VT(CS) method ([7]; Frontal cortex): 3.24 ± 1.07 | BPND, VND method ([7]; Globus pallidus): 6.60 ± 0.33 | BPND, VT(CS) method ([7]; Globus pallidus): 1.61 ± 0.42 | BPND ratio [^18F]SDM-16/[^11C]UCB-J ([7]; Guo plot): 1.41 | BPND ratio [^18F]SDM-16/[^18F]SynVesT-1 ([7]; Guo plot): 0.99 | BPND, VND method ([7]; Hippocampus): 6.55 ± 0.97 | BPND, VT(CS) method ([7]; Hippocampus): 1.72 ± 0.44 | BPND, VND method ([7]; Insular cortex): 13.77 ± 1.93 | BPND, VT(CS) method ([7]; Insular cortex): 3.54 ± 1.31 | BPND, VND method ([7]; Nucleus accumbens): 14.51 ± 0.23 | BPND, VT(CS) method ([7]; Nucleus accumbens): 3.48 ± 1.35 | BPND, VND method ([7]; Occipital cortex): 12.62 ± 1.09 | BPND, VT(CS) method ([7]; Occipital cortex): 3.49 ± 0.90 | BPND, VND method ([7]; Putamen): 11.50 ± 0.8 | BPND, VT(CS) method ([7]; Putamen): 3.00 ± 1.00 | BPND, VND method ([7]; Temporal cortex): 12.06 ± 0.54 | BPND, VT(CS) method ([7]; Temporal cortex): 3.15 ± 0.52 | BPND, VND method ([7]; Thalamus): 9.46 ± 0.19 | BPND, VT(CS) method ([7]; Thalamus): 2.29 ± 0.72 | BPND with CS VT lower than BPND with VND ([7]; average): 67%
